Source: patent publication US8637510B2, “Morpholinothiazoles as alpha 7 positive allosteric modulators” (Janssen Pharmaceutica NV, priority 2009, dated 2014)

Biological target: T1, human alpha 7-wt nAChR-expressing GH4C1 cells (Homo sapiens, UniProt P36544)
T1 construct: expressed in transfected cells
Assay: Patch-clamp current recording (whole-cell voltage-clamp, PAM type classification)
Assay type: cell-based
Design: key: Type 0 compounds minimally change the effect size of the current elicited by 1 mM choline.; Type 1 compounds enhance the effect size of the current elicited by 1 mM choline but minimally alter the kinetics of the receptor.; Type 2 compounds enhance the effect size of the current elicited by 1 mM choline while reducing the rate and/or the extent of desensitization.; Type 3 compounds enhance the effect size of the current elicited by 1 mM choline. When tested at higher concentrations up to 10 μM they completely inhibit desensitization; Type 4 compounds allow for an initial desensitization of the receptor followed by a re-opening of the receptor during agonist application
Settings: 1 mM choline
Outline: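 Whole-cell voltage clamp of GH4C1 cells stably expressing human wild-type α7 nAChR, with compound co-applied with 1 mM choline via rapid (<100 ms) solution switching; external pH 7.3, CsCl-based internal solution, 1.5-3 MΩ electrodes. PAM type (0-4) assigned from current kinetics when peak potentiation reached ≥200% of control choline response.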

T1 sequence (P36544 23-502): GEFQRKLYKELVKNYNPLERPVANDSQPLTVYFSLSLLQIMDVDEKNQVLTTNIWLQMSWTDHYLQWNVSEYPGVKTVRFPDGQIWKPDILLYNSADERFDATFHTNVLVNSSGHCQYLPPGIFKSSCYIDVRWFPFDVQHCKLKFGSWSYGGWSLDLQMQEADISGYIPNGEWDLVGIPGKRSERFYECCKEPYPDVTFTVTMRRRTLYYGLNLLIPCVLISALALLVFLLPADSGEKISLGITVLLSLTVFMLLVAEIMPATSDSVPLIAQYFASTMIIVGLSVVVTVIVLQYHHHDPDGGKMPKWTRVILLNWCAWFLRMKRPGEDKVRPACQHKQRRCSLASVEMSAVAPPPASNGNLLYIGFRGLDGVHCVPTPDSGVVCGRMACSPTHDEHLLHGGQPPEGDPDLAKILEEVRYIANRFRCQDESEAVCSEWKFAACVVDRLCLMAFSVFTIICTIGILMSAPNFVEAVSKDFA

SMILES | PAM_Type PAM type
Cc1cc(-c2sc(N3C[C@@H](C)O[C@@H](C)C3)nc2CNC(=O)CC2CC2)cc(C)n1 [Compound 1, N-[[2-[(2R,6S)-2,6-dimethyl-4-morpholinyl]-5-(2,6-dimethyl-4-pyridinyl)-4-thiazolyl]methyl]-cyclopropaneacetamide] | 2
Cc1cc(-c2sc(N3C[C@@H](C)O[C@@H](C)C3)nc2CNC(=O)c2conc2C)cc(C)n1 [Compound 18, N-[[2-[(2R,6S)-2,6-dimethyl-4-morpholinyl]-5-(2,6-dimethyl-4-pyridinyl)-4-thiazolyl]methyl]-3-methyl-4-isoxazolecarboxamide] | 2
